The values below come from ChEMBL document CHEMBL3045269, “Anti-leukemic activity of sulfonoquinovosyldiacylglyceride (SQDG): a constituent of Azadirachta indica leaves” (Med Chem Res, 2013).

Common to all, as to assay type: functional
Assay [1] relates to U-937. Put plainly: Cytotoxicity against Homo sapiens (human) U937 cells assessed as growth inhibition at 2 ug/ml after 48 hr by MTT assay relative to untreated control. As to conditions: U-937, 48 h, read-out: GI. Background: Tetrazolium assays rely on reduction of a dye to a coloured formazan, in cell work by metabolically active cells.
For assay [2], the system named is K562. Put plainly: Cytotoxicity against Homo sapiens (human) K562 cells assessed as growth inhibition at 2 ug/ml after 48 hr by MTT assay relative to untreated control. The conditions noted are these: K562, 48 h, read-out: GI.
In assay [3] the test system is U-937. The assay is described as follows: Cytotoxicity against Homo sapiens (human) U937 cells assessed as growth inhibition at 2 ug/ml after 24 hr by MTT assay relative to untreated control. As to conditions: U-937, 24 h, read-out: GI.
The subject of assay [4] is K562. The assay is described as follows: Cytotoxicity against Homo sapiens (human) K562 cells assessed as growth inhibition at 2 ug/ml after 24 hr by MTT assay relative to untreated control. As to conditions: K562, 24 h, read-out: GI.

Consider `Nc1ccn([C@@H]2O[C@H](CO)[C@@H](O)[C@@H]2O)c(=O)n1` [CYTARABINE], for which the inhibition of growth at 2 µg/mL with U-937 [1] was found to be 85.1%; with K562 [2], 65.1%; in the assay on U-937 [3], 59.9%; with K562 [4], 39.9%.
